From patent US20160145300A1, “ARTIFICIAL DECAPEPTIDE, MEDICATION AND METHOD OF INDUCING BREEDING OF CRUSTACEANS” (National Pingtung University of Science and technology, priority 2014, published 2016)
Marks after values point to notes of the source that are not given here.

Legend:
Type in all cases: in vivo
[1] = system: male shrimps (Litopenaeus vannamei); test: maturity of spermatophore in male shrimps after administration of sustainable releasing dosage
Experimental: After these, an effective amount of the artificially decapeptide is administrated to a crustacean, wherein, the effective amount of the artificially decapeptide may be 10 nanograms (ng) to 1000 ng, preferably 50 ng, per gram of body weight for each administrating. In one embodiment of the present embodiment a sustainable releasing dosage of the artificial decapeptide may be optionally prepared and administrated to the crustacean, so as to simplify the administration process. A method of preparing the sustainable releasing dosage of the artificially decapeptide, for example, may include formulating a great amount of the artificially decapeptide in an excipient, such as an excipient including oil. For example, 100 ng to 2000 ng of the artificially decapeptide may be formulated in 50 microliter (μl) to 200 μl of the excipient. With such arrangement, while the sustainable releasing dosage of the artificially decapeptide is administrated to the crustacean, the artificially decapeptide therein may be allowed to progressively release in the crustacean, thereby extending the inducing effect to the crustacean. […]
(§1) In the present test, the artificial decapetide is firstly formulated in the aforementioned sustainable releasing dosage and then administrated to each Litopenaeus vannamei. After that, the spermatophore development of each male shrimp is determined and recorded every 4 days after the administration, through observing the external characteristics spermatophore. Also, the spermatophore weight, as well as the sperm count, is precisely measured 44 days after the administration. On the other hand, the ovarian development of each female shrimp is also determined and recorded weekly 2-4 months after the administration through observing the external characteristics and the maturity of ovarian. Furthermore, the spawning times of each female shrimp may be also recorded. […]

[2] = system: female shrimps (Litopenaeus vannamei); test: ovarian development of female shrimps after administration; details: recorded weekly 2-4 months after the administration, percentage relative to overall Litopenaeus vannamei in the test
Experimental: (§2) After these, an effective amount of the artificially decapeptide is administrated to a crustacean, wherein, the effective amount of the artificially decapeptide may be 10 nanograms (ng) to 1000 ng, preferably 50 ng, per gram of body weight for each administrating. In one embodiment of the present embodiment a sustainable releasing dosage of the artificial decapeptide may be optionally prepared and administrated to the crustacean, so as to simplify the administration process. A method of preparing the sustainable releasing dosage of the artificially decapeptide, for example, may include formulating a great amount of the artificially decapeptide in an excipient, such as an excipient including oil. For example, 100 ng to 2000 ng of the artificially decapeptide may be formulated in 50 microliter (μl) to 200 μl of the excipient. With such arrangement, while the sustainable releasing dosage of the artificially decapeptide is administrated to the crustacean, the artificially decapeptide therein may be allowed to progressively release in the crustacean, thereby extending the inducing effect to the crustacean. Thus, in another embodiment of the present invention, the sustainable releasing dosage of the artificially decapeptide may be administrated to the crustacean every three to six months, preferably every four months, but not limited thereto. In other embodiment of the present invention, the artificially decapeptide may also be firstly formulated in saline, to forma solvent, and then, mixed with the excipient, wherein a volume ratio between the solvent and the excipient may be 1:1 to 1:3. Furthermore, in another embodiment, the excipient may include mineral oil, such as […] or incomplete adjuvant; vegetable oil, such as peanut oil, olive oil or coconut oil; fat adhesive, such as methylcellulose; or a composite of the aforementioned oil.
In the present test, the artificial decapeptide of the present invention is exemplified on numbers of Litopenaeus vannamei (Decapoda: Macrura). However, people in the art should easily realize the present invention is not limited thereto.
In the present test, the artificial decapetide is firstly formulated in the aforementioned sustainable releasing dosage and then administrated to each Litopenaeus vannamei. After that, the spermatophore development of each male shrimp is determined and recorded every 4 days after the administration, through observing the external characteristics spermatophore. Also, the spermatophore weight, as well as the sperm count, is precisely measured 44 days after the administration. On the other hand, the ovarian development of each female shrimp is also determined and recorded weekly 2-4 months after the administration through observing the external characteristics and the maturity of ovarian. Furthermore, the spawning times of each female shrimp may be also recorded. Please refer to TABLEs 1-3 and FIGS. 1-2, which illustrate gonadal promoting effects of the artificial decapeptide either on male or female shrimps (Litopenaeus vannamei). Wherein, TABLE 1 and FIGS. 1-2 show the maturity of spermatophore in male shrimps, including the development stage, spermatophore weight and sperm count per spermatophore, after the artificial decapeptide is administrated, in comparison with untreated male shrimps (control; marked as B in FIGS. 1-2), respectively.

[3] = system: female shrimps (Litopenaeus vannamei); test: spawning times of female shrimps after administration
Experimental: as §2
In the present test, the artificial decapeptide of the present invention is exemplified on numbers of Litopenaeus vannamei (Decapoda: Macrura). […]
as §1

[4] = 44 days after the administration

artificial decapeptide: Synthetic 10-amino-acid peptide based on chicken GnRH-II (SEQ ID NO: 2); N-terminal Glu and C-terminal Gly unblocked (H-EHWSHGWYPG-OH; listed as Gallus gallus)
sperm count per spermatophore [1, 4]: 68.5 ± 18.14 10^5/per spermatophore
spermatophore weight [1, 4]: 0.0217 ± 0.007 g
spermatophore development stage reached ([1]; in 44 days after the administration): 2.5
percentage of female shrimps at ovarian development stage 0 ([2]; stage 0): 0%^b
percentage of female shrimps at ovarian development stage 0.5 ([2]; stage 0.5): 20%^b
percentage of female shrimps at ovarian development stage 1 ([2]; stage 1): 0%^b
percentage of female shrimps at ovarian development stage 1.5 ([2]; stage 1.5): 0%^b
percentage of female shrimps at ovarian development stage 2 ([2]; stage 2): 0%^b
percentage of female shrimps at ovarian development stage 2.5 ([2]; stage 2.5): 0%^b
percentage of female shrimps at ovarian development stage 3 ([2]; stage 3): 0%^b
percentage of female shrimps with spawning times 0 ([3]; 0 spawnings, 8-16 weeks after administrating, percentage relative to overall Litopenaeus vannamei in the test): 20%^b
percentage of female shrimps with spawning times 3 ([3]; 3 spawnings, 8-16 weeks after administrating, percentage relative to overall Litopenaeus vannamei in the test): 0%^b
effective period ([3]; compared with current techniques (around one month)): between two and four
number of spawnings induced ([3]; compared with current techniques (fewer times of spawning)): four
